Entries after “also recorded” stand apart in the source; their conditions may differ.
How the values were obtained:
Format in all cases: cell-based, human
[1] = test system: peptide-pulsed C1R-A33 cells; assay: IFN-gamma ELISPOT assay of peptide-induced CTLs (HLA-A*3303); conditions: CTLs induced from HLA-A*3303-positive donors, peptide-pulsed C1R-A33 vs control
Description: (§1) Monocyte-derived dendritic cells (DCs) were used as the antigen-presenting cell to induce a cytotoxic T lymphocyte (CTL) response against peptides presented on human leukocyte antigens (HLAs). As described in the other sections, DCs were generated in vitro (Nakahara S et al., Cancer Res 2003, 63(14): 4112-8). Specifically, peripheral-blood mononuclear cells isolated from healthy volunteers (HLA-A*3303-positive) with the Ficoll-Paque plus solution (Pharmacia) were separated by attaching to plastic tissue culture dishes (Becton Dickinson) and concentrated as a monocyte fraction. The monocyte-concentrated population was cultured in the presence of 1000 IU/ml granulocyte macrophage colony-stimulating factor (R&D System) and 1000 IU/ml interleukin(IL)-4 (R&D System) in an AIM-V medium (Invitrogen) containing 2% heat-inactivated autologous serum (AS). After seven days of culturing, the cytokine-induced DCs were pulsed with 20 micro-g/ml each of the synthesized peptides in an AIM-V medium at 37 degrees C. for three hours in the presence of 3 micro-g/ml beta 2-microglobulin. The generated cells appeared to express on their cell surface DC-associated molecules such as CD80, CD83, CD86 and HLA class II (data not shown). Next, these peptide-pulsed DCs were inactivated by X-ray irradiation (20 Gy), and mixed in a 1:20 ratio with autologous CD8^+ T cells obtained by positive selection using the CD8 Positive Isolation Kit (Dynal). These culture products were seeded in a 48-well plate (Corning). Each well was made to contain 1.5×10^4 peptide-pulsed DCs, 3×10^5 CD8^+ T cells and 10 ng/ml IL-7 (R&D System) in 0.5 ml of the AIM-V/2% AS medium. Three days later, these culture products were added with a final concentration of 20 IU/ml IL-2 (CHIRON). On day 7 and day 14, T cells were further stimulated with peptide-pulsed autologous DCs. The DCs were prepared every time by the same method as above. On day 21, after the third peptide stimulation, CTLs were examined against the peptide-pulsed CIR-A33 cell by a human interferon (IFN)-gamma enzyme-linked immunospot (ELISPOT) assay (Tanaka H et al., Br J Cancer 2001, 84(1): 94-9; Umano Y et al., Br J Cancer 2001, 84(8): 1052-7; Uchida N et al., Clin Cancer Res 2004, 10(24): 8577-86; Suda T et al., Cancer Sci 2006, 97(5): 411-9; Watanabe T et al., Cancer Sci 2005, 96(8): 498-506).
(§2) Specifically, peptide-pulsed C1R-A33 (1×10^4 cells/well) was prepared as the stimulator cell. The induced CTLs, i.e., CTL lines and CTL clones, were used as the responder cell. The IFN-gamma ELISPOT assay and IFN-gamma ELISA were performed according to the manufacturer's manual.

[2] = test system: peptide-pulsed C1R-A33; assay: IFN-gamma ELISA of CTL lines and CTL clones (HLA-A*3303); conditions: for IFN-gamma production of CTL lines: peptide-pulsed vs non-pulsed target cells, HLA-A*3303
Description: (§3) CTLs were propagated in culture using methods similar to those disclosed by Riddell et al. (Walter E A et al., N Engl J Med 1995, 333(16): 1038-44; Riddell S R et al., Nat Med 1996, 2(2): 216-23). The CTLs were co-cultured in a total of 25 ml AIM-V medium containing 5% AS (AIM-V/5% AS) and 40 ng/ml anti-CD3 antibody with two types of Mitomycin C-treated human B lymphoblastoid cell lines at 5×10^6 cells/flask. One day after beginning of the culturing, 120 IU/ml IL-2 was added to the culture. On days 5, 8 and 11, a fresh AIM-V/5% AS medium containing 30 IU/ml IL-2 was added to the culture (Tanaka H et al., Br J Cancer 2001, 84(1): 94-9; Umano Y et al., Br J Cancer 2001, 84(8): 1052-7; Uchida N et al., Clin Cancer Res 2004, 10(24): 8577-86; Suda T et al., Cancer Sci 2006, 97(5): 411-9; Watanabe T et al., Cancer Sci 2005, 96(8): 498-506).
(§4) Dilution of CTLs was carried out to make 0.3, 1 and 3 cells/well in 96 round-bottomed microtiter plates (Nalge Nunc International). The CTLs were co-cultured with two types of Mitomycin C-treated human B lymphoblastoid cell lines at 1×10^4 cells/well in a total of 150 micro-l/well AIM-V/5% AS medium with 30 ng/ml anti-CD3 antibody and 125 IU/ml IL-2. Ten days later, IL-2 was added to the medium at 50 micro-l/well to reach a final concentration of 125 IU/ml. On day 14, the CTL activity was tested, and the CTL clones were propagated using the same method as described above (Uchida N et al., Clin Cancer Res 2004, 10(24): 8577-86; Suda T et al., Cancer Sci 2006, 97(5): 411-9; Watanabe T et al., Cancer Sci 2005, 96(8): 498-506).
as §2

[3] = test system: peptide-pulsed C1R-A11 cells; assay: IFN-gamma ELISPOT assay of peptide-induced CTLs (HLA-A*1101); conditions: CTLs induced from HLA-A*1101-positive donors, peptide-pulsed C1R-A11 vs control
Description: as §1, with “(HLA-A*1101-positive)” for “(HLA-A*3303-positive)”, “C1R-A11 cells” for “CIR-A33 cell”
(§5) Specifically, peptide-pulsed C1R-A11 (1×10^4 cells/well) was prepared as the stimulator cell. The induced CTLs, i.e., CTL lines and CTL clones, were used as the responder cell. The IFN-gamma ELISPOT assay and IFN-gamma ELISA were performed according to the manufacturer's manual.

[4] = test system: peptide-pulsed C1R-A11; assay: IFN-gamma ELISA of CTL lines and CTL clones (HLA-A*1101); conditions: for IFN-gamma production of CTL lines: peptide-pulsed vs non-pulsed target cells, HLA-A*1101
Description: as §3, §4, §5

| Sequence | peptide-specific CTL activity (IFN-gamma production) [1] | IFN-gamma production of CTL lines [2] | also measured |
| --- | --- | --- | --- |
| DILCPKAKR (a peptide derived from CDCA1) [SEQ ID NO: 60] | potent IFN-gamma production | – | – |
| DTVQKLKNAR (a peptide derived from CDCA1) [SEQ ID NO: 69] | potent IFN-gamma production | potent IFN-gamma production | – |
| ETADILCPK (a peptide derived from CDCA1) [SEQ ID NO: 5] | potent IFN-gamma production | – | peptide-specific CTL activity (IFN-gamma production) ([3]; listed as CDCA1-A11-9-105): potent IFN-gamma production; also recorded: significant specific CTL activity; IFN-gamma production of CTL clones ([4]; CTL clones by limiting dilution, peptide-pulsed C1R-A11, listed as CDCA1-A11-9-105): Potent IFN-gamma production; IFN-gamma production of CTL lines [4]: potent IFN-gamma production |
| GIINFIHFR (a peptide derived from CDCA1) [SEQ ID NO: 3] | potent IFN-gamma production | potent IFN-gamma production | peptide-specific CTL activity (IFN-gamma production) ([3]; listed as CDCA1-A11-9-123): potent IFN-gamma production; also recorded: significant specific CTL activity; IFN-gamma production of CTL lines [4]: potent IFN-gamma production; IFN-gamma production of CTL clones ([2]; CTL clones by limiting dilution, peptide-pulsed C1R-A33, listed as CDCA1-A33-9-123): Potent IFN-gamma production |
| NVAEIVIHIR (a peptide derived from CDCA1) [SEQ ID NO: 67] | potent IFN-gamma production | potent IFN-gamma production | – |
| SGIINFIHFR (a peptide derived from CDCA1) [SEQ ID NO: 68] | – | – | peptide-specific CTL activity (IFN-gamma production) ([1]; listed as CDCA1-A33-10-122): no specific IFN-gamma production; also recorded: specific IFN-gamma production was not observed |
| TVQKLKNAR (a peptide derived from CDCA1) [SEQ ID NO: 28] | potent IFN-gamma production | – | – |
